# Measurements reported in patent US6723736B2, “Tricyclic compounds and uses thereof” (Theracos, Inc., priority 2000, dated 2004).
# Experiments:
# [1] = system: collagen-induced arthritis in male DBA/1 Lac mice; experiment: Suppression of collagen-induced arthritis in mice; format: in vivo; details: 50 mg/kg orally daily for 17 days, compared to vehicle-treated group
# Protocol: The ability of compound B to reduce inflammation in an animal model of arthritis was also studied. Arthritis was induced by intradermal administration of collagen (100 μg/mice) in complete adjuvant in male DBA/1 Lac mice 7 weeks old. The booster immunization (100 μg/mice) in incomplete adjuvant was given subcutaneously on day 21. Two days later, when arthritic scores were around 1, animals were divided into two groups. One group received 50 mg/kg dose of compound B orally for 17 days daily. The second group received 10% PEG in water and was used as a vehicle-treated group. Body weight (FIG. 6, panel A), clinical score (FIG. 6, panel B), the number of joints affected (FIG. 6, panel C) and paw thickness (FIG. 6, panel D) were monitored 24 hours after drug administration during the treatment period.
# IL-10 production = experiment: Inhibition of LPS-induced IL-10 production in human PBMC (ELISA); format: cell-based; details: human PBMC, 1, 10, 30 or 100 μM 1 hr preincubation, LPS 1 μg/ml 20 hr
# Protocol: (§1) Human peripheral blood mononuclear cells (PBMC) were purified from human blood using Ficoll-Paque PLUS separation medium (Amersham Pharmacia Biotech) according to the manufacturer's recommended protocol. After centrifugation, the central PBMC layer was collected, washed twice with phosphate buffered saline (PBS) and then plated in a 96-well plate at a density of 2×10^5 cells/well in RPMI-1640 medium containing 10% FBS. The cells were preincubated with dexamethasone (1 μM) or Compound B (1, 10, 30 or 100 μM) for 1 hr and then challenged with LPS (1 μg/ml) for 20 hr. Cells receiving no drug treatment, incubated with or without LPS, served as controls. The cell supernatants were collected, and the amount of IL-10 in each was measured by standard ELISA. […] To confirm that the observed decrease in IL-10 was not due to cytotoxicity, the PBMC were plated in a separate plate, incubated for 20 hr with the same range of doses of Compound B, and the cell viability was assessed by a standard MTS dye exclusion assay (4-hr incubation with MTS).
# COX-1 = target: T1, COX-1 (Mus musculus, UniProt P22437); experiment: Constitutive COX-1 activity in RAW264.7 cells (TXB2 EIA); format: cell-based, murine; details: RAW264.7, LPS 0.1 μg/ml 6 hr; higher concentrations of compound B (1-100 μM tested); dexamethasone 1 μM
# T1 construct: having no effect on the constitutively expressed COX-1 activity; endogenous in cells; host or cells: RAW264.7 cells, then lysed
# T1 sequence (P22437 27-602): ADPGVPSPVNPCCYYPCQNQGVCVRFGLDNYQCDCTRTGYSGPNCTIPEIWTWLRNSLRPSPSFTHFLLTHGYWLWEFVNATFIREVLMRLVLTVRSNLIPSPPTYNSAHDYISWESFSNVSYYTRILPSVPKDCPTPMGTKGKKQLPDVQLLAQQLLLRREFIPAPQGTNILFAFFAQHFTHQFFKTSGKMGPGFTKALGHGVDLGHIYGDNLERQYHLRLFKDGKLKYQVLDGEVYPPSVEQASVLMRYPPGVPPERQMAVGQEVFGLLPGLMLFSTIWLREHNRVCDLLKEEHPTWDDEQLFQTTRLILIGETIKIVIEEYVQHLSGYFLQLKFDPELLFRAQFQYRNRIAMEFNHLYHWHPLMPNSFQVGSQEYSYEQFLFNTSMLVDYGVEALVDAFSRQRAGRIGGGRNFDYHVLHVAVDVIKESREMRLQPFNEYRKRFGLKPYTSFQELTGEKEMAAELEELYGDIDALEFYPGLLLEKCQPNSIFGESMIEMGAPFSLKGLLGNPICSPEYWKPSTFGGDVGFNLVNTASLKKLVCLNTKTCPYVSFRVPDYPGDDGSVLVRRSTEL
# Protocol: (§2) In this experiment, the inhibitory effect of compound B was compared to that of dexamethasone, a potent inhibitor of COX-2 expression. RAW264.7 cells were grown in RPMI-1640 medium containing 3% FBS and pre-incubated for 1 hr at 37° C. with compound B (1, 3, 10, 30 or 100 μM), dexamethasone (Dex, 1 μM), or without drug. After 1 hr LPS (0.1 μg/ml) was added, and the cells were further incubated for 6 hr at 37° C. Control cells received neither drug nor LPS. Cells were collected, lysed and assayed for cyclooxygenase activities essentially according to the method of Brideau et al. (Inflamm Res 45:68-74, 1996). COX-2 activity was measured using the Biotrak Prostaglandin E2 (PGE2) EIA Kit, and COX-1 activity was determined using the Biotrak Thromboxane B2 (TXB2) EIA Kit, both from Amersham Pharmacia Biotech (Piscataway, N.J.).
# TNF-alpha production = experiment: Inhibition of LPS-induced TNF-alpha production in RAW264.7 cells (ELISA); format: cell-based, murine; details: RAW264.7, 1-100 μM compound 1 hr pre-incubation, LPS 0.1 μg/ml 6 hr
# Protocol: The ability of compound B to inhibit TNF-alpha production was examined in a standard in vitro model of inflammation—the murine macrophage-like cell line RAW264.7 stimulated with lipopolysaccharides (LPS). RAW264.7 cells were grown in RPMI-1640 medium containing 3% FBS and pre-incubated for 1 hr at 37° C. with varying concentrations (1, 3, 10, 30 or 100 μM) of compound B. LPS (0.1 μg/ml) was then added, and the cells were further incubated for 6 hr at 37° C. in a 5% carbon dioxide atmosphere. Cell supernatants were then collected, aliquoted, and assayed for TNF-alpha by ELISA with anti-TNF-alpha antibody.
# [2] = system: TNF-alpha induced killing of WEHI-13VAR cells; experiment: Inhibition of TNF-alpha induced cell killing (MTT viability); format: cell-based, mouse
# Protocol: Compounds B and E were tested for their ability to inhibit TNF-alpha induced killing of cultured mouse fibrosarcoma cells. WEHI-13VAR cells were grown in buffered RPMI-1640 medium containing 3% FBS and assayed for TNF-alpha induced cell death as described by Khabar et al. (Immunol Lett 46:107-10, 1995). Cells were co-incubated for 20 hr with 100 pg/ml (FIG. 1A) or 1 pg/ml (FIG. 1B) of TNF-alpha and 100 μg/ml of berberine, compound B or compound E. Controls included cells receiving TNF-alpha but no drug, as well as cells receiving no TNF-alpha and treated with or without NP-40 lysis buffer. Cell viability was assayed using the dye MTT (3-(4,5-dimethylthiozol-2-yl)-2,5-diphenyl tetrazolium bromide) as described.
# The dose response was measured for the ability of compound B to inhibit TNF-alpha induced killing of cultured mouse fibrosarcoma cells. In this experiment, the inhibitory action of compound B was compared to that of a chimeric recombinant protein dimer containing soluble TNF receptor fused to the Fc portion of immunoglobulin heavy chain (Mohler KM et al., J Immunol 151:1548-61,1993), a known antagonist of TNF-alpha mediated cell killing. WEHI-13VAR cells were grown in buffered RPMI-1640 medium containing 3% FBS and assayed for TNF-alpha induced cell death as described by Khabar et al. (Immunol Lett 46:107-10, 1995). […]
# IL-6 production = experiment: Inhibition of LPS-induced IL-6 production in RAW264.7 cells (ELISA); format: cell-based, murine; details: RAW264.7, 1-100 μM compound 1 hr pre-incubation, LPS 0.1 μg/ml 6 hr
# Protocol: The ability of compound B to inhibit IL-6 production was also examined in LPS-stimulated RAW cells. RAW264.7 cells were grown in RPMI-1640 medium containing 3% FBS and pre-incubated for 1 hr at 37° C. with varying concentrations (1, 3, 10, 30 or 100 μM) of compound B. LPS (0.1 μg/ml) was then added, and the cells were further incubated for 6 hr at 37° C. in a 5% carbon dioxide atmosphere. Cell supernatants were then collected, aliquoted, and assayed for IL-6 by ELISA with anti-IL-6 antibody.
# COX-2 = target: T2, COX-2 (Mus musculus, UniProt Q05769); experiment: LPS-induced COX-2 activity in RAW264.7 cells (PGE2 EIA); format: cell-based, murine; details: RAW264.7, LPS 0.1 μg/ml 6 hr; higher concentrations of compound B (1-100 μM tested); dexamethasone 1 μM
# T2 construct: examined in LPS-stimulated RAW cells; endogenous in cells; host or cells: RAW264.7 cells, LPS-stimulated (0.1 µg/ml, 6 hr), then lysed
# T2 sequence (Q05769 18-604): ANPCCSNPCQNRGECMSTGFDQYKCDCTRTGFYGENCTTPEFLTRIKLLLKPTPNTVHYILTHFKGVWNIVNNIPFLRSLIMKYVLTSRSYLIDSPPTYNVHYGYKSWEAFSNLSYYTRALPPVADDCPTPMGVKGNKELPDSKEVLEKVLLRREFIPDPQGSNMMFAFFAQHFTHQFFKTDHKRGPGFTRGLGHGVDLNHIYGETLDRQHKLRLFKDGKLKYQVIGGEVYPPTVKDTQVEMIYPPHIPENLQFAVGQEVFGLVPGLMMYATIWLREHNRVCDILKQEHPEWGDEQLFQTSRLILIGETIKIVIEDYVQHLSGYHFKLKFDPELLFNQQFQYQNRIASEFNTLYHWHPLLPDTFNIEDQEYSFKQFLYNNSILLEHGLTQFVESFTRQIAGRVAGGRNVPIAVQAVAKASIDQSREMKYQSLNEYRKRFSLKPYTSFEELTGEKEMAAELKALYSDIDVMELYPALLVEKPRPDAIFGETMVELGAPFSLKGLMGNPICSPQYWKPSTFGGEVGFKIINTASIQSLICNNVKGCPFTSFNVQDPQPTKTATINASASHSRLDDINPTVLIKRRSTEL
# Protocol: as §2
# [3] = system: Human peripheral blood mononuclear cells (PBMC); experiment: PBMC cell viability (MTS dye exclusion assay); format: cell-based; details: 20 hr, 1-100 μM
# Protocol: as §1
smiles,measurement,setting,value
COc1ccc(-c2ncc3c(OC)c(OC)ccc3c2O)cc1 [Compound B],body weight,[1],No change in body weight
same,clinical score,[1],significantly lower clinical scores
same,number of joints affected,[1],fewer joints affected
same,paw thickness,[1],reduced paw thickness
same,inhibition of LPS-induced IL-10 production,IL-10 production,dose-dependent inhibition
same,effect on constitutively expressed COX-1 activity,COX-1,no effect
same,inhibition of LPS-induced TNF-alpha production,TNF-alpha production,~50%
same,concentration at which the maximal inhibitory effect on TNF-alpha induced cell killing was attained,"[2]; 100 pg/ml or 50 pg/ml TNF-alpha, 20 hr, inhibition proportional to dose up to this concentration",10 µM
same,inhibition of TNF-alpha induced cell killing (increased cell viability),"[2]; 100 μg/ml compound, 100 pg/ml or 1 pg/ml TNF-alpha, 20 hr co-incubation, relative to untreated or berberine-treated cells",inhibited TNF-alpha induced cell killing
same,inhibition of LPS-induced IL-6 production,IL-6 production,up to 60%
same,effect on inducible COX-2 activity,COX-2,completely and selectively abrogated
same,loss in cell viability (cytotoxicity),[3],no significant loss in cell viability
